Results on 19 molecules are retold here after ChEMBL document CHEMBL5154728, “Design and synthesis of novel quinazolinone derivatives as anti-HBV agents with TLR8 agonist effect” (Eur J Med Chem, 2022).

Data set [1] can be described thus: Cytotoxicity against human HepG2 2.2.15 cells infected with Hepatitis B virus assessed as reduction in cell growth by CCK8 assay. It is filed as toxicity, cell-based.
Data set [2] in a line: Antiviral activity against Hepatitis B virus infected in human HepG2 2.2.15 cells assessed as inhibition of DNA replication. It is filed as functional, cell-based.
The nature of data set [3]: Selectivity index, ratio of CC50 for human HepG2.2.2.15 cells to IC50 for Hepatitis B virus infected in human HepG2.2.2.15 cells. It is filed as toxicity, cell-based. Particulars: read-out: Selectivity Index.
Data set [4] in a line: Antiviral activity against lamivudine/entecavir- resistant Hepatitis B virus infected in human HepG2 A64 cells assessed as inhibition of DNA replication. It counts as functional, cell-based.
For data set [5], the system named is Hepatitis B virus. Description: Antiviral activity against lamivudine/entecavir-resistant Hepatitis B virus infected in human HepG2 A64 cells assessed as inhibition of DNA replication at 1 uM incubated for 72 hrs by RT PCR analysis. It counts as functional, organism-based. The settings on record: for IC50: HepG2.A64, 72 h; for inhibition at 1 µM: HepG2.A64, dose 1 µM, time 72 hrs.

Data set [6] has as its system Hepatitis B virus. Description: Antiviral activity against wild type Hepatitis B virus infected in human HepG2.2.2.15 cells assessed as inhibition of DNA replication at 1 uM incubated for 72 hrs by RT PCR analysis. It counts as functional.
The target in data set [7] is T1, Toll-like receptor 8 (Homo sapiens) (UniProt Q9NR97).
T1 sequence (whole entry): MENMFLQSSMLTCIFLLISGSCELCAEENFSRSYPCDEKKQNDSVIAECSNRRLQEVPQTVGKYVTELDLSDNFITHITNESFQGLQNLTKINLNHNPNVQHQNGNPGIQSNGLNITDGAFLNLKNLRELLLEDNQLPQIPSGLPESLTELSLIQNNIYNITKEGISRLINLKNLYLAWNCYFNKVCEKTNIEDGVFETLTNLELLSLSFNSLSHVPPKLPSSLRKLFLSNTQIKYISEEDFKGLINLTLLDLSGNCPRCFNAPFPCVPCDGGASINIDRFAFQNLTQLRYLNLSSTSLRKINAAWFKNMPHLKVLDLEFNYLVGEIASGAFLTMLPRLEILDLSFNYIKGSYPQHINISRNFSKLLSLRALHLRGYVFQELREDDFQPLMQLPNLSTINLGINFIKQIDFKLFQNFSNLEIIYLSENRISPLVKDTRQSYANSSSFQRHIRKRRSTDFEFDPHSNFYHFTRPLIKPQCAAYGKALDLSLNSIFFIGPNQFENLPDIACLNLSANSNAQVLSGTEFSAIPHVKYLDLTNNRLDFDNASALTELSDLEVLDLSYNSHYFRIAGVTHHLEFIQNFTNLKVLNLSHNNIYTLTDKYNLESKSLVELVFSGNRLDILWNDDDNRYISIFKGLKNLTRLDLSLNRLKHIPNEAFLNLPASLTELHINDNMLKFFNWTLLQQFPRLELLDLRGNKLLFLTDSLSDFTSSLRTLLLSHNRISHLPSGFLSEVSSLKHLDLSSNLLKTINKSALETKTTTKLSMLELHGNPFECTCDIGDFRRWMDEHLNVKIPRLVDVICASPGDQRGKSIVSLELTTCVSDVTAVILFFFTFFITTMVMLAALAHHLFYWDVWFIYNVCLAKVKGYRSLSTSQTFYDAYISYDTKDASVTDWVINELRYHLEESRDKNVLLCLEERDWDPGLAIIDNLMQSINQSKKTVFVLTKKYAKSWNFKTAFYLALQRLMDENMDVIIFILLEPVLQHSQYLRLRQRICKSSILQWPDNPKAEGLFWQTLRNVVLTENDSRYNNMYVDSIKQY
Description: Agonist activity at human TLR8 expressed in HEK293T cells co-transfected with NFKappaB luciferase and renilla plasmids assessed as NF-kappaB activation measured after 48 hrs by dual-luciferase reporter gene assay. It counts as cell-based. The settings on record: filed as agonist, DDE = dose-dependent effect.

The nature of data set [8]: Selectivity index, ratio of CC50 for human HepG2.2.2.15 cells to IC50 for lamivudine/entecavir-resistant Hepatitis B virus infected in human HepG2 A64 cells. The settings on record: HepG2.2.2.15 cells (CC50), read-out: Selectivity Index. It counts as toxicity, cell-based.

Consider `Nc1ccn([C@@H]2CS[C@H](CO)O2)c(=O)n1` [LAMIVUDINE], for which the CC50 in data set [1] is over 100000 nM. Moreover, the figures for the IC50 in data set [2] and in data set [4] were under 100 nM and over 100000 nM, respectively. Also, the selectivity ratio in data set [3] was over 1000.
`CN1CCN(CCCOc2ccc3nc(SCc4ccc(F)cc4)n(Cc4ccco4)c(=O)c3c2)CC1`: the CC50 in data set [1] was 2900 nM.
`Nc1nccc(OCCCOc2ccc3nc(SCc4ccccc4)n(Cc4cccs4)c(=O)c3c2)n1`: the CC50 in data set [1] was over 10000 nM.
Turning to `O=c1c2cc(OCCCN3CCC(O)CC3)ccc2nc(SCc2cccc(F)c2)n1Cc1ccco1`, the CC50 in data set [1] was found to be 1830 nM. For the same molecule, in data set [2], the IC50 is 870 nM. In addition, the selectivity ratio in data set [3] was over 2.17.
For the molecule `Nc1nccc(OCCCCOc2ccc3nc(SCc4ccccc4)n(Cc4ccco4)c(=O)c3c2)n1`, in data set [1], the cytotoxic concentration (CC50) is over 10000 nM.
Still for that read-out and setting: the figure for `COc1ccccc1CSc1nc2ccc(OCCCN3CCN(C)CC3)cc2c(=O)n1Cc1ccco1` is over 10000 nM.
For the molecule `Nc1nccc(OCCCOc2ccc3nc(SCc4cccc(F)c4)n(Cc4ccccc4)c(=O)c3c2)n1`, in data set [1], the CC50 is over 10000 nM.
As for `CCN(CC)CCOc1ccc2nc(SCc3ccccc3)n(Cc3cccs3)c(=O)c2c1`, the CC50 in data set [1] is over 10000 nM. In data set [2], the IC50 came to 830 nM. Besides, the selectivity ratio in data set [3] was 22.9.
Consider `Nc1nccc(OCCCOc2ccc3nc(SCc4ccc(F)cc4)n(Cc4ccccc4)c(=O)c3c2)n1`, for which the CC50 in data set [1] was over 10000 nM.
Consider `O=c1c2cc(OCCCN3CCC(O)CC3)ccc2nc(SCc2ccccc2)n1Cc1ccco1`, for which the half-maximal cytotoxic concentration (CC50) in data set [1] was over 10000 nM. In addition, the IC50 in data set [2] amounted to 700 nM. Also, the selectivity ratio in data set [3] was over 14.3.
Taken in the same sequence, the figures for `CN1CCN(CCCOc2ccc3nc(SCc4cccc(F)c4)n(Cc4ccco4)c(=O)c3c2)CC1` were 4220 nM, 990 nM and over 4.26.
Turning to `Nc1nccc(OCCOc2ccc3nc(SCc4ccccc4)n(Cc4ccco4)c(=O)c3c2)n1`, the CC50 in data set [1] was determined as 1250 nM.
With `O=c1c2cc(OCCCN3CCC(O)CC3)ccc2nc(SCc2ccc(F)cc2)n1Cc1ccco1`, in data set [1], the CC50 was over 10000 nM.
Regarding `COc1ccccc1CSc1nc2ccc(OCCCOc3ccnc(N)n3)cc2c(=O)n1Cc1ccco1`, the values for the IC50 (in the data set with Hepatitis B virus [5]; in data set [2]; in data set [4]) were 100 nM, 150 nM and 100 nM, respectively. For the same molecule, the inhibition at 1 µM with Hepatitis B virus [5] is 77.3%; with Hepatitis B virus [6] it was 80.9%. Also, the CC50 in data set [1] was over 10000 nM. Also, the Activity entry in data set [7] is “Dde”. The selectivity ratio is over 66.7 in data set [3] and over 100 in data set [8].
Take `CN1CCN(CCCOc2ccc3nc(SCc4ccccc4)n(Cc4ccco4)c(=O)c3c2)CC1`: the CC50 in data set [1] is over 10000 nM. Further, in data set [2], the IC50 turned out to be 630 nM. In data set [3], the selectivity ratio is over 15.9.
Consider `Nc1nccc(OCCCOc2ccc3nc(SCc4ccccc4)n(CC4CCCCC4)c(=O)c3c2)n1`, for which the CC50 in data set [1] is over 10000 nM.
On the same count and under the same terms, the figure for `COc1ccccc1CSc1nc2ccc(OCCCN3CCC(O)CC3)cc2c(=O)n1Cc1ccco1` is over 10000 nM.
For the molecule `Nc1nccc(OCCCOc2ccc3nc(SCc4ccccc4)n(Cc4ccco4)c(=O)c3c2)n1`, the IC50 in the data set with Hepatitis B virus [5] stood at 240 nM; in data set [2], 310 nM; in data set [4], 210 nM. The inhibition at 1 µM with Hepatitis B virus [5] turned out to be 75.3%; in the data set with Hepatitis B virus [6], 79.3%. For the same molecule, the CC50 in data set [1] was over 10000 nM. Further, the figures for the selectivity ratio in data set [3] and in data set [8] were over 32.2 and over 41.7, respectively.
Regarding `Nc1nccc(OCCCOc2ccc3nc(SCc4ccccc4)n(Cc4ccccc4)c(=O)c3c2)n1`, the CC50 in data set [1] is over 10000 nM.
